Columns and labels:
[1] = Test Example 6: freeze-thaw test, precipitation of crystals; format: physicochemical; settings: 0.5% aqueous solution (pH 5.5), left standing at room temperature
Experimental: Investigation on the Processing of Amosulalol Hydrochloride into Ophthalmic Solution: Freeze-Thaw Test (Investigation on a Stabilizing Agent for the Ophthalmic Solution of Amosulalol Hydrochloride)
Consequently, investigation was conducted on a stabilizing agent intended for use in the case of such freezing.
0.5% aqueous solution of amosulalol hydrochloride (pH 5.5), after being admixed with each of the stabilizing agents (Nos. 1 to 5) as described in Table 1 shown below, was filled into a glass ampoule of 5 ml capacity, frozen at -30° C. and left standing at room temperature to conduct inspection for the presence of crystals in it.

conjunctiva = assay: Test Example 2: conjunctival hyperemia, pigmented rabbits; format: in vivo, pigmented rabbits (Dutch belted rabbits); settings: concentrations of less than 0.5%
α-adrenergic = settings: cited from earlier work
β-adrenergic = settings: cited from earlier work

For `COc1ccccc1OCCNCC(O)c1ccc(C)c(S(N)(=O)=O)c1.Cl` (stereo not shown) [amosulalol hydrochloride, 5-[1-hydroxy-2-[2-(2-methoxyphenoxy)ethylamino]ethyl]-2-methylbenzenesulfonamide hydrochloride], the “dissolution of crystals after freezing” value [1] is listed as “did not allow the crystals to dissolve”, the conjunctival hyperemia (conjunctiva) is listed as “merely a slight degree of conjunctival hyperemia” and the α-adrenergic blocking activity (α-adrenergic) is listed as “exhibit both α-adrenergic and β-adrenergic blocking activities”. For the same compound, the β-adrenergic blocking activity (β-adrenergic) was “exhibit both α-adrenergic and β-adrenergic blocking activities”.
